The record followed here is patent publication EP4389751A1, “HETEROCYCLIC COMPOUNDS AND USES THEREOF” (Kumquat Biosciences Inc., priority 2021, dated 2024).

Structures are written as SMILES.

This assay deals with T1, K-Ras G12S (Homo sapiens, UniProt P01116, G12S).
T1 construct: made in house; host or cells: E. coli (e.g., BL21 (DE3))
T1 sequence (P01116 1-188 isoform P01116-2 G12S): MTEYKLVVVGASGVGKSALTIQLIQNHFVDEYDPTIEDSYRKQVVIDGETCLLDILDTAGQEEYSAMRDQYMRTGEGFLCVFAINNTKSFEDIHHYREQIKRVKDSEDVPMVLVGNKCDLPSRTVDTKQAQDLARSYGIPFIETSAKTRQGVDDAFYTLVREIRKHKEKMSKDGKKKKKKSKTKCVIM
The assay can be described thus: HTRF assay of the K-Ras / SOS1 interaction. It is filed as biochemical. Conditions: IC50 (against K-Ras G12D) to IC50 (against K-Ras G12S). The method, boiled down:
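Compounds (duplicates, 10 µM to 0.01 µM) were incubated ≥~10 min with Eu-labelled GST-K-Ras G12S and XL665-labelled His-hSOS1 in HEPES pH 7.4 buffer containing NaCl, DTT, BSA and Igepal. Disruption measured as HTRF emission ratio 665/620 nm, fitted to IC50.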
A general note: TR-FRET usually uses a lanthanide donor and a delayed reading to cut background.
With `N#Cc1c(N)sc2c(F)ccc(-c3c(Cl)cc4c(N5CCC6C5CCCN6C(=O)n5cncn5)nc(OC[C@@]56CCCN5C[C@H](F)C6)nc4c3F)c12` (stereo partly drawn) [Compound A152, 4-(4-(4-(1H-1,2,4-triazole-1-carbonyl)octahydro-1H-pyrrolo[3,2-b]pyridin-1-yl)-6-chloro-8-fluoro-2-(((2R,7aS)-2-fluorotetrahydro-1H-pyrrolizin-7a(5H)-yl)methoxy)quinazolin-7-yl)-2-amino-7-fluorobenzo[b]thiophene-3-carbonitrile], the “Ratio of IC50 KRAS G12D vs. IC50 KRAS G12S” value (“Ratio” below) was “A (A: indicates that the ratio of IC50 against KrasG12D vs. IC50 against KrasG12S is 1-fold or greater)”.

For `N#Cc1nccn1C(=O)N1C2CCC1CN(c1nc(OC[C@@]34CCCN3C[C@H](F)C4)nc3c(F)c(-c4ccc(F)c5sc(N)nc45)c(Cl)cc13)C2` [Compound A170, 1-(3-(7-(2-amino-7-fluorobenzo[d]thiazol-4-yl)-6-chloro-8-fluoro-2-(((2R,7aS)-2-fluorotetrahydro-1H-pyrrolizin-7a(5H)-yl)methoxy)quinazolin-4-yl)-3,8-diazabicyclo[3.2. 1]octane-8-carbonyl)-1H-imidazole-2-carbonitrile], the “Ratio” value is listed as “A (A: indicates that the ratio of IC50 against KrasG12D vs. IC50 against KrasG12S is 1-fold or greater)”. Then `N#Cc1c(N)sc2c(F)ccc(-c3c(Cl)cc4c(N5CCC6C5CN6C(=O)n5cncn5)nc(OC[C@@]56CCCN5C[C@H](F)C6)nc4c3F)c12` (stereo partly drawn) [Compound A183, 4-(4-(6-(1H-1,2,4-triazole-1-carbonyl)-2,6-diazabicyclo[3.2.0]heptan-2-yl)-6-chloro-8-fluoro-2-(((2R,7aS)-2-fluorotetrahydro-1H-pyrrolizin-7a(5H)-yl)methoxy)quinazolin-7-yl)-2-amino-7-fluorobenzo[b]thiophene-3-carbonitrile], with “A (A: indicates that the ratio of IC50 against KrasG12D vs. IC50 against KrasG12S is 1-fold or greater)”. Next, `Cc1nc(C)n(C(=O)N2CC3(COCCN(c4nc(OC[C@@]56CCCN5C[C@H](F)C6)nc5c(F)c(-c6ccc(F)c7sc(N)c(C#N)c67)c(Cl)cc45)C3)C2)n1` [Compound A185, 2-amino-4-(6-chloro-4-(2-(3,5-dimethyl-1H-1,2,4-triazole-1-carbonyl)-6-oxa-2,9-diazaspiro[3.6]decan-9-yl)-8-fluoro-2-(((2R,7aS)-2-fluorotetrahydro-1H-pyrrolizin-7a(5H)-yl)methoxy)quinazolin-7-yl)-7-fluorobenzo[b]thiophene-3-carbonitrile]: “A (A: indicates that the ratio of IC50 against KrasG12D vs. IC50 against KrasG12S is 1-fold or greater)”; `Nc1nc2c(-c3c(Cl)cc4c(N5CCCN(C(=O)n6cncn6)CC5)nc(OC[C@@]56CCCN5C[C@H](F)C6)nc4c3F)ccc(F)c2s1` [Compound A191, (4-(7-(2-amino-7-fluorobenzo[d]thiazol-4-yl)-6-chloro-8-fluoro-2-(((2R,7aS)-2-fluorotetrahydro-1H-pyrrolizin-7a(5H)-yl)methoxy)quinazolin-4-yl)-1,4-diazepan-1-yl)(1H-1,2,4-triazol-1-yl)methanone]: “A (A: indicates that the ratio of IC50 against KrasG12D vs. IC50 against KrasG12S is 1-fold or greater)”.

For `N#Cc1c(N)sc2c(F)ccc(-c3c(Cl)cc4c(N5CCOC6(CN(C(=O)n7ccnn7)C6)C5)nc(OC[C@@]56CCCN5C[C@H](F)C6)nc4c3F)c12` [Compound A195, 4-(4-(2-(1H-1,2,3-triazole-1-carbonyl)-5-oxa-2,8-diazaspiro[3.5]nonan-8-yl)-6-chloro-8-fluoro-2-(((2R,7aS)-2-fluorotetrahydro-1H-pyrrolizin-7a(5H)-yl)methoxy)quinazolin-7-yl)-2-amino-7-fluorobenzo[b]thiophene-3-carbonitrile], the “Ratio” value was “A (A: indicates that the ratio of IC50 against KrasG12D vs. IC50 against KrasG12S is 1-fold or greater)”. Then `N#Cc1c(N)sc2c(F)ccc(-c3c(Cl)cc4c(N5CCOC6CN(C(=O)n7cncn7)CC65)nc(OC[C@@]56CCCN5C[C@H](F)C6)nc4c3F)c12` (stereo partly drawn) [Compound A218, 4-(4-(6-(1H-1,2,4-triazole-1-carbonyl)hexahydropyrrolo [3,4-b][1,4]oxazin-4(4aH)-yl)-6-chloro-8-fluoro-2-(((2R,7aS)-2-fluorotetrahydro-1H-pyrrolizin-7a(5H)-yl)methoxy)quinazolin-7-yl)-2-amino-7-fluorobenzo[b]thiophene-3-carbonitrile], with “A (A: indicates that the ratio of IC50 against KrasG12D vs. IC50 against KrasG12S is 1-fold or greater)”; and `CN(C)C1CN(c2nc(N3CCOC4(CN(C(=O)n5cncn5)C4)C3)c3cc(Cl)c(-c4ccc(F)c5sc(N)c(C#N)c45)c(F)c3n2)C1` [Compound A256, 4-(4-(2-(1H-1,2,4-triazole-1-carbonyl)-5-oxa-2,8-diazaspiro[3.5]nonan-8-yl)-6-chloro-2-(3-(dimethylamino)azetidin-1-yl)-8-fluoroquinazolin-7-yl)-2-amino-7-fluorobenzo[b]thiophene-3-carbonitrile], with “A (A: indicates that the ratio of IC50 against KrasG12D vs. IC50 against KrasG12S is 1-fold or greater)”.

For the molecule `N#Cc1c(N)sc2c(F)ccc(-c3c(Cl)cc4c(N[C@H]5C[C@H]6CC[C@@H](C5)N6C(=O)n5cncn5)nc(OC[C@@]56CCCN5C[C@H](F)C6)nc4c3F)c12` [Compound A257, 4-(4-(((1R,3r,5S)-8-(1H-1,2,4-triazole-1-carbonyl)-8-azabicyclo[3.2.1]octan-3-yl)amino)-6-chloro-8-fluoro-2-(((2R,7aS)-2-fluorotetrahydro-1H-pyrrolizin-7 a(5H)-yl)methoxy)quinazolin-7-yl)-2-amino-7-fluorobenzo[b]thiophene-3-carbonitrile], the “Ratio” value is “A (A: indicates that the ratio of IC50 against KrasG12D vs. IC50 against KrasG12S is 1-fold or greater)”. Regarding `N#Cc1c(N)sc2c(F)ccc(-c3c(Cl)cc4c(OC5CCCCN(C(=O)n6cncn6)C5)nc(OC[C@@]56CCCN5C[C@H](F)C6)nc4c3F)c12` (stereo partly drawn) [Compound A258, 4-(4-((1-(1H-1,2,4-triazole-1-carbonyl)azepan-3-yl)oxy)-6-chloro-8-fluoro-2-(((2R,7aS)-2-fluorotetrahydro-1H-pyrrolizin-7a(5H)-yl)methoxy)quinazolin-7-yl)-2-amino-7-fluorobenzo[b]thiophene-3-carbonitrile], the “Ratio” value is reported as “A (A: indicates that the ratio of IC50 against KrasG12D vs. IC50 against KrasG12S is 1-fold or greater)”.

For `N#Cc1c(N)sc2c(F)ccc(-c3c(Cl)cc4c(N5CCC6(CN(C(=O)n7cncn7)C6)C5)nc(OC[C@@]56CCCN5C[C@H](F)C6)nc4c3F)c12` [Compound A277, 4-(4-(2-(1H-1,2,4-triazole-1-carbonyl)-2,6-diazaspiro[3.4]octan-6-yl)-6-chloro-8-fluoro-2-(((2R,7aS)-2-fluorotetrahydro-1H-pyrrolizin-7a(5H)-yl)methoxy)quinazolin-7-yl)-2-amino-7-fluorobenzo[b]thiophene-3-carbonitrile], the “Ratio” value is listed as “A (A: indicates that the ratio of IC50 against KrasG12D vs. IC50 against KrasG12S is 1-fold or greater)”.

Regarding `Cc1nc(C)n(C(=O)N2CC3(C2)CN(c2nc(OC[C@@]45CCCN4C[C@H](F)C5)nc4c(F)c(-c5ccc(F)c6sc(N)c(C#N)c56)c(Cl)cc24)CCO3)n1` [Compound A283, 2-amino-4-(6-chloro-4-(2-(3,5-dimethyl-1H-1,2,4-triazole-1-carbonyl)-5-oxa-2,8-diazaspiro[3.5]nonan-8-yl)-8-fluoro-2-(((2R,7aS)-2-fluorotetrahydro-1H-pyrrolizin-7a(5H)-yl)methoxy)quinazolin-7-yl)-7-fluorobenzo[b]thiophene-3-carbonitrile], the “Ratio” value was “A (A: indicates that the ratio of IC50 against KrasG12D vs. IC50 against KrasG12S is 1-fold or greater)”.

Consider `N#Cc1c(N)sc2c(F)ccc(-c3c(Cl)cc4c(N5CC6(CCCCN(C(=O)n7cncn7)C6)C5)nc(OC[C@@]56CCCN5C[C@H](F)C6)nc4c3F)c12` [Compound A285, 4-(4-(6-(1H-1,2,4-triazole-1-carbonyl)-2,6-diazaspiro[3.6]decan-2-yl)-6-chloro-8-fluoro-2-(((2R,7aS)-2-fluorotetrahydro-1H-pyrrolizin-7a(5H)-yl)methoxy)quinazolin-7-yl)-2-amino-7-fluorobenzo[b]thiophene-3-carbonitrile], for which the “Ratio” value is given as “A (A: indicates that the ratio of IC50 against KrasG12D vs. IC50 against KrasG12S is 1-fold or greater)”. Then `C#Cc1c(F)ccc2cc(O)cc(-c3ncc4c(N5CCOCC6(CN(C(=O)n7cnc(C)n7)C6)C5)nc(OC[C@@]56CCCN5C[C@H](F)C6)nc4c3F)c12` [Compound A298, (9-(7-(8-ethynyl-7-fluoro-3-hydroxynaphthalen-1-yl)-8-fluoro-2-(((2R,7aS)-2-fluorotetrahydro-1H-pyrrolizin-7a(5H)-yl)methoxy)pyrido[4,3-d]pyrimidin-4-yl)-6-oxa-2,9-diazaspiro[3.6]decan-2-yl)(3-methyl-1H-1,2,4-triazol-1-yl)methanone], with “A (A: indicates that the ratio of IC50 against KrasG12D vs. IC50 against KrasG12S is 1-fold or greater)”; and `Cc1ncn(C(=O)N2CC3CCN(c4nc(OC[C@@]56CCCN5C[C@H](F)C6)nc5c(F)c(-c6ccc(F)c7sc(N)c(C#N)c67)c(Cl)cc45)C3C2)n1` (stereo partly drawn) [Compound A304, 2-amino-4-(6-chloro-8-fluoro-2-(((2R,7aS)-2-fluorotetrahydro-1H-pyrrolizin-7a(5H)-yl)methoxy)-4-(5-(3-methyl-1 H-1,2,4-triazole-1-carbonyl)hexahydropyrrolo[3,4-b]pyrrol-1(2H)-yl)quinazolin-7-yl)-7-fluorobenzo[b]thiophene-3-carbonitrile], with “A (A: indicates that the ratio of IC50 against KrasG12D vs. IC50 against KrasG12S is 1-fold or greater)”.
